# “Also recorded” adds a separate entry of the source.
# How the values were obtained:
# [1] = system: APC hotspot stop codon mutations; test: Dual luciferase reporter plasmid system for APC stop codon readthrough; assay type: cell-based; conditions: HCT116 colorectal cancer cells; APC hotspots 1061, 1554, 1450; tylosin 4-80 μg/ml
# Experimental: HCT116 CRC cells (control cells carrying a wild-type APC) were cultured in Dulbecco's modified Eagle's medium (DMEM) supplemented with 10% fetal calf serum (FCS) and 100 units/ml penicillin or streptomycin. Cells were kept in a humidified, 5% CO2 atmosphere at 37° C. Cells were transfected using JetPEI (PolyPlus Transfection). The cells were transfected with 0.5 μg of the described construct, and 48 hours later, the levels of luciferase were measured with the Luciferase assay kit (Promega, USA), according to the manufacturer's instructions.
# A dual luciferase reporter plasmid system was used to measure the effect of tylosin on readthrough of APC hotspot stop codon mutations in colorectal tissue culture cells. In this system, the Renilla luciferase reporter gene is located upstream of the hotspot, and the firefly luciferase reporter gene is located downstream of the hotspot in the APC wild-type or mutated sequences, and both genes are under the transcriptional control of the APC promoter (FIG. 2a). The Renilla luciferase gene serves as an internal normalization control for transfection efficiency, mRNA abundance and the levels of translation initiation, since translation of both enzymes originates from the same translation initiation signal. Following normalization, the differences in firefly luciferase activities reflect the frequency of stop codon readthrough. Constructs containing either wild-type or the APC mutated sequence at the APC hotspot codons 1061 or 1554 were transfected into HCT116 colorectal cancer cells grown in the presence of varying amounts of antibiotics of the macrolide family.
# HT-29 CRC cells [2] = test: H&E histology of tumors from control and tylosin-treated mice; assay type: in vivo; conditions: tumor sections of tylosin-treated mice versus control
# Source text: Tumor sections from control and treated mice were stained with H&E stain. The slides were examined by a professional pathologist.
# Tumor sections from control and tylosin-treated mice were stained with Hematoxylin and Eosin (H&E) stain, a stain used routinely for tissue sections, and were examined by a professional pathologist.
# APC = test: Anti-APC immunoblot of tumor lysates from treated mice; assay type: in vivo; conditions: tumors of mice treated with 0.8 mg/ml, 0.4 mg/ml tylosin versus NT, HCT116 wild-type APC as size marker
# Experimental: Tumors from control and treated mice were lysed, run on an SDS-PAGE gel, and transferred to a nitrocellulose membrane. The membrane was incubated with an anti-APC antibody (oncogene APC AB-2).
# HT-29 CRC cells [3] = test: HT-29 CRC cell tumorigenicity in nude mice, tylosin in drinking water; assay type: in vivo; conditions: 0.4 μg/ml tylosin in the drinking water
# Experimental: Six female Nude mice (SCID) were injected with 1×10^7 HT-29 cells. For fourteen days treated groups were fed a normal mouse diet and received drinking water containing 0.4 mg/ml of tylosin. The control group received regular drinking water. Following fourteen days, the mice were sacrificed and the tumors were removed and weighed.
# Truncation of APC correlates with tumor formation (15). The present inventor predicted that restoration of functional, full-length APC protein in a cell line containing only truncated APC would lead to a decrease in tumorigenesis. 1×10^7 HT-29 CRC cells containing a hotspot mutation at codon 1554 of APC were injected into twelve nude SCID mice. The treated mice group (six mice) received 0.4 μg/ml tylosin in the drinking water. […] Following fourteen days of receiving drinking water with or without tylosin, the mice were sacrificed and the tumor was removed. The tumors were weighed and the tumor mass of the tylosin-treated mice was, on average, approximately 40% lower than that of the control group (FIG. 4b).
# β-catenin/Tcf signaling = test: pTOPFLASH luciferase reporter of β-catenin/Tcf-mediated transcription; assay type: cell-based; conditions: CX-1 CRC cells (stop mutation in APC hotspot 1554); 8 μg/ml tylosin; 48 h after transfection
# Experimental: Cells were maintained as described above. Cells were transfected with 0.5 μg of pTOPFLASH and 0.05 μg Renilla (Promega, USA). Forty-eight hours later, the levels of luciferase were measured by using the Luciferase assay kit (Promega, USA).
# Colorectal cell lines show high levels of β-catenin/Tcf-mediated transcription due to mutations that lead to over-activation of the Wnt signaling pathway. To measure the effect of tylosin on levels of β-catenin/Tcf-mediated transcription, CX-1 CRC cells containing a stop mutation in APC hotspot 1554 were transfected with pTOPFLASH, a luciferase reporter plasmid that is widely used for measuring transcriptional activity of Tcf and β-catenin (pTOPFLASH contains multimerized Tcf-binding sites linked to a luciferase reporter).
compound,measurement,setting,value
gentamycin,APC stop codon readthrough (firefly luciferase normalized to Renilla),[1],more moderate levels of stop codon readthrough
"CC[C@H]1OC(=O)[C@H](C)[C@@H](O[C@H]2C[C@@](C)(OC)[C@@H](O)[C@H](C)O2)[C@H](C)[C@@H](O[C@@H]2O[C@H](C)C[C@H](N(C)C)[C@H]2O)[C@](C)(O)C[C@@H](C)C(=O)[C@H](C)[C@@H](O)[C@]1(C)O [erythromycin, Erythromycin]",APC stop codon readthrough (firefly luciferase normalized to Renilla),[1],more moderate levels of stop codon readthrough
CC[C@H]1OC(=O)C[C@@H](O)[C@H](C)[C@@H](O[C@@H]2O[C@H](C)[C@@H](O[C@H]3C[C@@](C)(O)[C@@H](O)[C@H](C)O3)[C@H](N(C)C)[C@H]2O)[C@@H](CC=O)C[C@@H](C)C(=O)/C=C/C(C)=C/[C@@H]1CO[C@@H]1O[C@H](C)[C@@H](O)[C@@H](OC)[C@H]1OC [tylosin],APC stop codon readthrough (firefly luciferase normalized to Renilla),[1],"significant levels of APC stop codon readthrough; also recorded: higher levels of readthrough compared to erythromycin, spiramycin, and gentamycin"
same,blood supply to the tumor (H&E stain),HT-29 CRC cells [2],not affected
same,tumor histology (H&E stain),HT-29 CRC cells [2],necrosis and death of tumor cells
same,expression of full-length APC in tumors (anti-APC antibodies),APC,a higher amount of tylosin increased the expression of the full-length protein accordingly
same,expression of full-length APC in tumors (anti-APC antibodies),APC; listed as Tylosin,expression of full-length APC
same,tumor size versus control mice,"HT-29 CRC cells [3]; nude SCID mice injected with 1×10^7 HT-29 cells, FIG. 4: ten days post-injection",reduced tumor size compared with the control mice; also recorded: smaller compared to that of the control group
same,"tumor mass lower than that of the control group, on average","HT-29 CRC cells [3]; nude SCID mice, HT-29 cells, fourteen days",approximately 40%
same,reduction in β-catenin/Tcf/LEF transcriptional signaling,β-catenin/Tcf signaling,approximately 50%
Spiramycin,APC stop codon readthrough (firefly luciferase normalized to Renilla),[1],more moderate levels of stop codon readthrough
